{"source": "patent US20210393667A1", "about": "“TARGET FOR ANTI-CANCER THERAPY” (Phoremost Limited, priority 2018, published 2021)", "key": {"[1]": {"test_system": "CA18-NanoLuc frameshift reporter in HEK293FT cells", "experiment": "Frameshift reporter (FSR) CA(18)-NanoLuc assay, small molecule treatment", "type": "cell-based", "details": "for increase in FSR signal: 72 hours, vs untreated FSR luminescence; for FSR activity (in words): dose range", "excerpt": "In order to read out mismatch repair (MMR) and hypermutability in mammalian cells, a Frameshift reporter (FSR) assay was used. The assay specifically focuses on frameshifts because, of all mismatch mutations, these are the ones that most abundantly generate neoantigens (see, for example, Turajlic et al. Lancet Oncol. 2017 (18; 1009-21). The assay based on the activity of the NanoLuciferase (NanoLuc®, Promega) reporter enzyme was developed (the “CA(n)-NanoLuc assay”). Copies of the CA dinucleotide repeat (referred to as “CA(n)”) were cloned upstream of the NanoLuc coding sequence. Typically 18 copies of the CA dinucleotide repeat (CA(18)) were used. Alternatively, the assay used 20 copies (CA(20)). This CA(n) tract renders the NanoLuc coding sequence out of frame, and therefore there is no reporter enzyme expression and no activity. The CA(n) tract is, however, a sequence which is subject to frequent DNA replication errors, and is therefore reliant on the MMR pathway to repair any post-replicative DNA mismatches. In a MMR-competent cell, any errors are efficiently repaired, the NanoLuc coding sequence remains out of frame and thus reporter activity is low. If, however, MMR is inhibited either by a small molecule or by genetic loss of any of the MMR machinery, post-replicative errors may remain unrepaired, frameshift mutations may occur, and therefore some cells in a population will now express a functional NanoLuc protein.\nMMR inhibition can therefore be reported as an increase in NanoLuc® activity when a plasmid containing a CA repeat, such as the CA(18) NanoLuc construct, is transfected into cells. Since NanoLuc® is a highly processive enzyme with a large and linear dynamic range, it was predicted that only a small number of MMR errors would be required to generate a positive signal, making for a sensitive assay with a large signal to noise ratio.\nIn addition, it has been shown that inhibition of RNR causes altered pools of dNTP resulting in increased mutation rates. Relatively modest dNTP pool deviations induce exceptionally strong mutator phenotypes which cause saturation of the DNA mismatch repair system and lead to detection in the FSR assay system.\nHEK293FT cells seeded at 600,000 cells per well in a 6 well plate and incubated overnight. Media was replaced and incubated a further 2 hours before transient transfection of pcDNA3.1 Hygro CA18Nluc (0.5 μg). After 4 hours media was replaced and incubated overnight. Media was aspirated, cells washed with PBS and trypsinised. Cells were pelleted by centrifugation (1000×g, 5 mins), washed in PBS, centrifuged again and resuspended in fresh media to […].\n(§1) A 96 well plate was seeded with 100 μl of transfected cells and incubated overnight. A 2× solution of clofarabine was made to 100 μM in DMEM and 9× two-fold dilutions were made in growth media. A parallel dilution series was made with equal concentrations of DMSO as a control. 100 μL of clofarabine or DMSO solution was added to wells of 96 well plates (6 replicates per concentration). PBS was added to outer wells of 96 well plates and incubated for 48 hours. To 3 wells per concentration a 1:1 ratio of CellTiter Glo (Promega) was added. To remaining wells, an equal volume of NanoGlo (Promega) reagent was added. 100 μL was aliquoted from each well to a 96 well, white walled, white bottomed plate and luminescence read. Percentage viability was calculated for all conditions in comparison to an untreated control and nanoluciferase reading were normalised to viability.\nFor triapine treatment, cells were initially seeded into 6 well plates and transfected with the pcDNA3.1 Hygro CA18Nluc construct, as in the detailed method for clofarabine treatment. After transfection, cells were trypsinised and seeded into white-walled 384 well plates at a density of 2000 cells per well in a final volume of 30 uL. After 24 hours, cells were treated with compounds or a DMSO solvent control in a final volume of 3.3 uL. […]"}, "HEK293FT cells [2]": {"test_system": "HEK293FT cells", "experiment": "CellTitre Glo viability assay", "type": "cell-based", "details": "HEK293FT cells, 3.33 uM, 72 hours", "description": "as §1\n(§2) For triapine treatment, cells were initially seeded into 6 well plates and transfected with the pcDNA3.1 Hygro CA18Nluc construct, as in the detailed method for clofarabine treatment. After transfection, cells were trypsinised and seeded into white-walled 384 well plates at a density of 2000 cells per well in a final volume of 30 uL. After 24 hours, cells were treated with compounds or a DMSO solvent control in a final volume of 3.3 uL. Compound stock was diluted to achieve a final concentration of 10 uM, and compounds were serially diluted in DMSO by three-fold to generate the dose-response curve. Compound was subsequently diluted in media, and then added to cells in 3.3 uL, ensuring a final concentration of DMSO no greater than 0.5%. PBS was added to outer wells of the 384 well plates and incubated for 72 hours. To 3 wells per concentration, 5 uL of CellTiter Glo (Promega) was added. To remaining wells, 30 uL of NanoGlo (Promega) reagent was added and incubated at room temperature for 30 minutes. Luminescence was read. Percentage viability was calculated for all conditions in comparison to an untreated control and nanoluciferase reading were normalised to viability."}, "[3]": {"experiment": "CellTitre Glo viability assay", "type": "cell-based", "details": "human", "description": "as §1, §2"}, "HEK293FT cells [4]": {"test_system": "HEK293FT cells", "experiment": "GI50, standard dosimetric assay testing for cell growth", "type": "cell-based"}, "CT26 cells [5]": {"test_system": "CT26 cells", "experiment": "Whole exome sequencing of CT26 cells after 100 days of clofarabine", "type": "cell-based, mouse", "details": "100 nM, relative to matched vehicle only control", "description": "CT26 cells, cultured in RPM11640 were dosed with 100 nM clofarabine or with DMSO only. Cells were passaged and re-dosed every 72 hours. Cells were harvested at 100 days, and single-cell colonies (SSCs) derived for each sample. After expansion over 8-10 days, genomic DNA was extracted from SSC pellets and whole exome sequencing (WES) performed following methods such as those described, for example, in WO2017/182783, see page 33, line 21 onwards and page 34, lines 1 to 5.\nSomatic single nucleotide variants (SNVs), multiple-nucleotide polymorphisms (MNPs), and insertion-deletion (InDel) mutations were identified using the GATK4 Toolkit and GATK's Mutect2 (version 4.1.4.0) to analyse the WES data. Prior to mapping the read sequences to the reference genome (mm10), read data quality and adapter trimming and QC was performed using TrimGalore and a Q-score cut-off of 30. Reads were aligned to mm10 using BWA mem (version 0.7.17-r1188). Duplicate reads were marked using MarkDuplicates (Picard, GATK4 copy). Variant discovery using Mutect2 was performed using a custom generated interval list and Panel of Normals (PON) resource. The interval list was derived for a BED file of canonical transcript exon positional information for mm10, which was generated using the UCSC TableBrowser. The PON was derived for matched CT26 WES data using Mutect2, GenomicsDBImport, and CreateSomaticPanelOfNormals. Variant filtering was performed using FilterMutectCalls (GATK4). Variants detailed in the VCF files generated using FilterMutectCalls were further filtered using a shell script in order to keep only variants meeting the quality control thresholds applied by FilterMutectCalls and exclude variants identified for reads mapping to unlocalized and unplaced contigs. The functional effects of the identified variants (on genes, transcripts, protein sequences, and regulatory regions) were predicted using the Ensembl Variant Effect Predictor (VEP)."}, "CT26 cells [6]": {"test_system": "CT26 cells", "experiment": "T cell killing assay with clofarabine-treated CT26 cells", "type": "cell-based, mouse", "details": "CT26 cells treated with 100 nM for 100 days; stimulated and unstimulated, C57BL/6- and Balb/c-derived CD8 T cells, 10:1, 72 h", "quoted_text": "T-cell extraction: Spleen from C56BL/6 and Balb/c mice was homogenised aseptically using a cell strainer and syringe plunger. RBC was lysed using lysis buffer and remaining cells washed and counted. Dynabeads untouched mouse CD8 cell kit (Thermofisher: 11417D) used to isolate CD8 cells using negative selection. Half these cells were cultured as unstimulated for assay controls but the majority was cultured with Dynabeads Mouse T-activator CD3/CD28 beads for 24 h prior to assay. T-cell assay: CT26 tumour cell lines (parental as control) was plated at 3,000 cells per well into a 96 well plate; effector cells at a ratio of 10:1 was added along with appropriate stains and imaged on the EVOS microscope over a period of 72 h."}, "[7]": {"details": "recommended dose for adult acute leukemia, 40 mg/m2/day×5 days; cited from earlier work"}}, "note": "Like-named read-outs stand apart in the source and are kept apart here.", "data": [{"smiles": "Nc1nc(Cl)nc2c1ncn2[C@H]1C[C@H](O)[C@@H](CO)O1", "note": "[cladribine, Cladribine]", "values": [{"measurement": "increase in FSR signal", "setting": "[1]; 3.33 uM", "result": 226, "unit": "%"}, {"measurement": "reduction in viability", "setting": "HEK293FT cells [2]", "result": "no reduction in viability"}]}, {"smiles": "Nc1nc(Cl)nc2c1ncn2[C@@H]1O[C@H](CO)[C@@H](O)[C@@H]1F", "note": "[clofarabine, (2R,3R,4S,5R)-5-(6-amino-2-chloropurin-9-yl)-4-fluoro-2-(hydroxymethyl)oxolan-3-ol]", "values": [{"measurement": "increase in FSR signal", "setting": "[1]; 50 nM", "result": 40, "unit": "%"}, {"measurement": "FSR activity (in words)", "setting": "[1]", "result": "dose-dependent increase in FSR activity"}, {"measurement": "viability at 72 h, 0.05 µM", "setting": "[3]", "result": 92, "unit": "%"}, {"measurement": "GI50", "setting": "HEK293FT cells [4]", "result": 430, "unit": "nM"}, {"measurement": "overall burden of mutations (largely SNV)", "setting": "CT26 cells [5]", "result": "does not increase substantially"}, {"measurement": "proportion of frame-shift causing InDel mutations", "setting": "CT26 cells [5]", "result": "elevated"}, {"measurement": "total count of frame-shift causing InDel mutations", "setting": "CT26 cells [5]", "result": "elevated"}, {"measurement": "T cell killing", "setting": "CT26 cells [6]", "result": "significantly increase T cell killing"}, {"measurement": "plasma levels", "setting": "[7]", "result": "around 1 μM"}]}, {"smiles": "Nc1ccn([C@@H]2O[C@H](CO)[C@@H](O)C2(F)F)c(=O)n1", "note": "[gemcitabine]", "values": [{"measurement": "increase in FSR signal", "setting": "[1]; 370 nM", "result": 300, "unit": "%"}, {"measurement": "FSR activity (in words)", "setting": "[1]", "result": "causes an increase in FSR activity"}, {"measurement": "cytotoxicity at 72 h, 370 nM", "setting": "[3]", "result": 50, "unit": "%"}, {"measurement": "GI50", "setting": "HEK293FT cells [4]", "result": 440, "unit": "nM"}]}, {"smiles": "NC(=S)N/N=C/c1ncccc1N", "note": "[triapine]", "values": [{"measurement": "increase in FSR signal", "setting": "[1]; 370 nM", "result": 400, "unit": "%"}, {"measurement": "cytotoxicity at 72 h, 370 nM", "setting": "[3]; HEK293FT cells, 370 nM, 72 hours, vs DMSO control, read-out: reduction in viability", "result": 23, "unit": "%"}, {"measurement": "GI50", "setting": "HEK293FT cells [4]", "result": 600, "unit": "nM"}]}]}
